According to paper PMC5522996, “Big conductance calcium‐activated potassium channel openers control spasticity without sedation” (British Journal of Pharmacology, 2017):

Assays:
mouse Gpr55 = target: T1, mouse Gpr55 (Mus musculus, UniProt Q3UJF0); assay: Nuclear CREB expression, DBT cells transfected with mouse Gpr55; format: cell-based; conditions: 10 μM
T1 construct: expressed in transfected cells; host or cells: DBT cells

CYP450 1A2 = CYP450 1A2 (Homo sapiens, UniProt P05177); assay: CYP450 inhibition of substrate binding
CYP450 1A2, sequence (P05177 whole entry): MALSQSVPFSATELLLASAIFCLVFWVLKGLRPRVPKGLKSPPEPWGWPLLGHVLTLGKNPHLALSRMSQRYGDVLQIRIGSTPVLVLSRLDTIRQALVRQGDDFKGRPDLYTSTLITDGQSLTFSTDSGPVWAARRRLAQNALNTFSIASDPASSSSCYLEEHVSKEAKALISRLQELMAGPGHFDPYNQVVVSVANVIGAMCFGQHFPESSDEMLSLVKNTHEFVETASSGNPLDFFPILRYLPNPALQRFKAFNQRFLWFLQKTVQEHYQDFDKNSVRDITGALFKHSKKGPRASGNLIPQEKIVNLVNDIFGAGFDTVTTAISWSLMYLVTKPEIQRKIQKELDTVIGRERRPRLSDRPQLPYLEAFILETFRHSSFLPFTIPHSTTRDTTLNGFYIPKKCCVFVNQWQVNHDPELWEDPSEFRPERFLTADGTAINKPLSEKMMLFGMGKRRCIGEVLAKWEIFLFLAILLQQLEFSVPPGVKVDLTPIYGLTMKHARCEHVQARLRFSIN
Text: IC50 Inhibition of substrate binding
(§1) Inhibition of binding of either 3-cyano-7-ethoxycoumarin, dibenzylfluorescein or 7-benzyoxy-4-
(§2) (trifluoromethyl) coumarin in human enzyme transfected BTI NN-5B1-4 cells or Sf9 insect cells or
(§3) inhibition of dextromethorphan substrate to CYP450 2D6 in liver microsomes.

NK2 = target: T2, NK2 (Homo sapiens, UniProt P21452); assay: Receptor binding profile of VSN16R; conditions: 10µM VSN16R
T2 construct: purchased Cerep; Chantest; DiscoveRx; Multispan; MDS Pharma Services
T2 sequence (P21452 whole entry): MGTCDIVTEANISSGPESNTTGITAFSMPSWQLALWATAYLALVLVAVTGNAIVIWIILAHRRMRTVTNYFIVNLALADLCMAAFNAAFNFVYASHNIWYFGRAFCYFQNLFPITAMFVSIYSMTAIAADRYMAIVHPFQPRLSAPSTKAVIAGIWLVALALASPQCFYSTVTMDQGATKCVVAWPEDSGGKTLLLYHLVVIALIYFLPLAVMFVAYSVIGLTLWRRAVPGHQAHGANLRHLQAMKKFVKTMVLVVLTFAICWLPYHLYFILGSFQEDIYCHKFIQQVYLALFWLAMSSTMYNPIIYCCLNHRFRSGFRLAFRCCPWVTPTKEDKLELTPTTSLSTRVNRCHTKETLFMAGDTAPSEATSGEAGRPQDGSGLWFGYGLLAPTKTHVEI

rat mesenteric artery = assay: Methoxamine‐evoked contraction of rat mesenteric artery; format: cell-based
Protocol: Vessels were equilibrated and set to a basal tension of 2 to 2.5 mN. The integrity of the endothelium was assessed by pre‐contracting the vessel with 10 μM methoxamine (an α1‐adrenoceptor agonist), followed by relaxation with 10 μM carbachol (a muscarinic acetylcholine receptor agonist); vessels showing relaxations of greater than 90% were designated as endothelium‐intact. When the endothelium was not required, it was removed by rubbing the intima with a human hair; carbachol‐induced relaxation of less than 10% indicated successful removal. After the test for endothelial integrity, vessels were left for 30 min and then pre‐contracted with 10 μM methoxamine. This was followed by construction of a cumulative concentration–relaxation curve to VSN16R (10 nM–1 μM). […] Most experiments were performed in matched vessels; effects of blockers or endothelial removal were compared with the control responses obtained in separate vessels of the same rats. All relaxant responses are expressed as percentage relaxation of the tone induced by methoxamine. Values are given as mean ± SEM. Statistical comparisons of concentration‐dependent responses were made by two‐way ANOVA using Prism 4 (GraphPad Software, Inc, San Diego, CA, USA).

δ2 = target: T3, δ2 (Homo sapiens, UniProt P41143); assay: Receptor binding profile of VSN16R; conditions: 10µM VSN16R
T3 construct: purchased Cerep; Chantest; DiscoveRx; Multispan; MDS Pharma Services
T3 sequence (P41143 whole entry): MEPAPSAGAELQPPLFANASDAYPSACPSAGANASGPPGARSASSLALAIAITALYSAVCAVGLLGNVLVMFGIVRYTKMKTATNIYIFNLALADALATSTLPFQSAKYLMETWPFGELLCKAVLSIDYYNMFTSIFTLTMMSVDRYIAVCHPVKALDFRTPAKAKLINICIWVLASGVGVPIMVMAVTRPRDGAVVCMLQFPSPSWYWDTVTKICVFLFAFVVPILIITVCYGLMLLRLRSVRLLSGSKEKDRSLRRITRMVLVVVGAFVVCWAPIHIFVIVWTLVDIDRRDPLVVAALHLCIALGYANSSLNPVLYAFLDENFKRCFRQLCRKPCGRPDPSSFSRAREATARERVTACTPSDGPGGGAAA

EDG3 = target: T4, EDG3 (Homo sapiens, UniProt Q99500); assay: Receptor binding profile of VSN16R; conditions: 10µM VSN16R
T4 construct: purchased Cerep; Chantest; DiscoveRx; Multispan; MDS Pharma Services
T4 sequence (Q99500 whole entry): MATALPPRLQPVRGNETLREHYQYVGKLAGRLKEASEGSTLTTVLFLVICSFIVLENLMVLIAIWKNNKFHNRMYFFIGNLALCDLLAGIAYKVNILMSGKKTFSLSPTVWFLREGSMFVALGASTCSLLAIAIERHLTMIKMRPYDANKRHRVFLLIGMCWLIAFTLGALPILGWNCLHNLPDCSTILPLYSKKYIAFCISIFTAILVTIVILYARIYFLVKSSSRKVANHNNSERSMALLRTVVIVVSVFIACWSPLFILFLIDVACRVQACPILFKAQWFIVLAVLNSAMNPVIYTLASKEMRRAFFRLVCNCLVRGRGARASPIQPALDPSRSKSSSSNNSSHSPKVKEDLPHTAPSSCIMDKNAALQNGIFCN

GABA (non-selective) = assay: Receptor binding profile of VSN16R; design: species or system human; conditions: 10µM VSN16R
EDG2 = target: T5, EDG2 (Homo sapiens, UniProt Q92633); assay: Receptor binding profile of VSN16R; conditions: 10µM VSN16R
T5 construct: purchased Cerep; Chantest; DiscoveRx; Multispan; MDS Pharma Services
T5 sequence (Q92633 whole entry): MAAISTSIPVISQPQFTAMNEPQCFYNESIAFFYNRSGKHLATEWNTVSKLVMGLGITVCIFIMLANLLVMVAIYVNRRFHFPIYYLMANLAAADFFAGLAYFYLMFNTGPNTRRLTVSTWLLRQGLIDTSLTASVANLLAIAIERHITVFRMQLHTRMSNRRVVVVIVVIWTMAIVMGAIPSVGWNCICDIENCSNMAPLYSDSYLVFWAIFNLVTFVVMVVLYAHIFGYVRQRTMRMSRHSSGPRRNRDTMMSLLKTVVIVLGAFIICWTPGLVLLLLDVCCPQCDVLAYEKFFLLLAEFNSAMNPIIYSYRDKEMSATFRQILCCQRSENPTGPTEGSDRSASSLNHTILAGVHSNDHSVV

CYP450 3A5 = CYP450 3A5 (Homo sapiens, UniProt P20815)
CYP450 3A5, sequence (P20815 whole entry): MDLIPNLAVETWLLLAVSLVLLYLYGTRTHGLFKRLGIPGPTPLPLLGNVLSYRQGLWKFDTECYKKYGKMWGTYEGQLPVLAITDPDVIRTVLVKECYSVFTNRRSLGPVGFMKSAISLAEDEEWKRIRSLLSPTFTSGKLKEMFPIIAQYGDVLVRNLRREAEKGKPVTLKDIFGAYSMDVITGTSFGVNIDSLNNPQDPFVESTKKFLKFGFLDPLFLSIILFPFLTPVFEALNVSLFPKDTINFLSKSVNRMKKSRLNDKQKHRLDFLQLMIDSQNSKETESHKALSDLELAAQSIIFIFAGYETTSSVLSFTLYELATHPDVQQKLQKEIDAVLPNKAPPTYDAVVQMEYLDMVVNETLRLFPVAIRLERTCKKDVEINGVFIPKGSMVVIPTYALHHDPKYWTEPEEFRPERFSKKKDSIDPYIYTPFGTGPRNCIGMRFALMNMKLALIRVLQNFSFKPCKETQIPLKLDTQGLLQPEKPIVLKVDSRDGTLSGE
Text: IC50 Inhibition of substrate binding
as §1, §2, §3

GPR119 = GPR119 (Homo sapiens, UniProt Q8TDV5); assay: Receptor binding profile of VSN16R; design: purchased Cerep; Chantest; DiscoveRx; Multispan; MDS Pharma Services; conditions: 10µM VSN16R
GPR119, sequence (Q8TDV5 whole entry): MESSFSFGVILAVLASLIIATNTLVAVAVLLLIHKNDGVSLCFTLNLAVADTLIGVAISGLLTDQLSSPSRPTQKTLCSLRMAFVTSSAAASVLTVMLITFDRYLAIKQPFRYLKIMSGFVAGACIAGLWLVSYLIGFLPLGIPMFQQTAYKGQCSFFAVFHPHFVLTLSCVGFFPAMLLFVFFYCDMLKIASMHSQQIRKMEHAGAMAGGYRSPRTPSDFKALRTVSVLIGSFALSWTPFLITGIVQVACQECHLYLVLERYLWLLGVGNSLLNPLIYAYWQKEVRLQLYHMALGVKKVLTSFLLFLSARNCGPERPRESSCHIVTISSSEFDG

5-HT5A = target: T6, 5-HT5A (Homo sapiens, UniProt P47898); assay: Receptor binding profile of VSN16R; conditions: 10µM VSN16R
T6 construct: purchased Cerep; Chantest; DiscoveRx; Multispan; MDS Pharma Services
T6 sequence (P47898 whole entry): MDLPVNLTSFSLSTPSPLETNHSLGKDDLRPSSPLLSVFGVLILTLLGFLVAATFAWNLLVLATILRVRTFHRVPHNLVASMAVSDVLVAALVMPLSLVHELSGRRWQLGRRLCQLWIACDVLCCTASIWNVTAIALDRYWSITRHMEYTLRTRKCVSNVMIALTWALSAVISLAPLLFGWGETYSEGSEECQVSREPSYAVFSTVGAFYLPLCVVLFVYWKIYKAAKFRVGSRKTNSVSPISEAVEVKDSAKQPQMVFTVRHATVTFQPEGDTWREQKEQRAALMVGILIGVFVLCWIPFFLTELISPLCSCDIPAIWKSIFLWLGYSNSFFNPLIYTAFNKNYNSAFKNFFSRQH

MC4 = target: T7, MC4 (Homo sapiens, UniProt P32245); assay: Receptor binding profile of VSN16R; conditions: 10µM VSN16R
T7 construct: purchased Cerep; Chantest; DiscoveRx; Multispan; MDS Pharma Services
T7 sequence (P32245 whole entry): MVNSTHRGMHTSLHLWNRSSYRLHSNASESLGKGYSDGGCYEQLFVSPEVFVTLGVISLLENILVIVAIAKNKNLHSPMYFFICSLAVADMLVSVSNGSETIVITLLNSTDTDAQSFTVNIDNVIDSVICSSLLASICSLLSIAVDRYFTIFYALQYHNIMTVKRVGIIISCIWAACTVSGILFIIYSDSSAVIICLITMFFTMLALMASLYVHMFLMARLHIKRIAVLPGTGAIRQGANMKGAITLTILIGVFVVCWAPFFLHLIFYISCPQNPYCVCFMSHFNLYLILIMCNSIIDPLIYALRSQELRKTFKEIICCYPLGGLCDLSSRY

healthy humans [1] = assay: Phase I single dose: haematology and serum chemistry; format: in vivo, human; conditions: Day 2
healthy humans [2] = assay: Phase I single dose: coagulation, urinanalysis, vital signs, electrocardiograms; conditions: for Electrocardiogram Heart Rate / PR Duration / QRS Duration / QT Duration / RR Duration: Day 1; for Activated Partial Thrombin Time / Partial Prothrombin Time / Supine Diastolic Blood Pressure / Supine Pulse Rate / Supine Respiratory Rate / Supine Systolic Blood Pressure / Supine Temperature / Thrombin Time / Urinanalysis Ketones / Urinanalysis Specific Gravity / Urinanalysis pH / Urine Bilirubin / Urine Glucose / Urine Protein / Urine RBC: Day 2
Y1 = target: T8, Y1 (Homo sapiens, UniProt P25929); assay: Receptor binding profile of VSN16R; conditions: 10µM VSN16R
T8 construct: purchased Cerep; Chantest; DiscoveRx; Multispan; MDS Pharma Services
T8 sequence (P25929 whole entry): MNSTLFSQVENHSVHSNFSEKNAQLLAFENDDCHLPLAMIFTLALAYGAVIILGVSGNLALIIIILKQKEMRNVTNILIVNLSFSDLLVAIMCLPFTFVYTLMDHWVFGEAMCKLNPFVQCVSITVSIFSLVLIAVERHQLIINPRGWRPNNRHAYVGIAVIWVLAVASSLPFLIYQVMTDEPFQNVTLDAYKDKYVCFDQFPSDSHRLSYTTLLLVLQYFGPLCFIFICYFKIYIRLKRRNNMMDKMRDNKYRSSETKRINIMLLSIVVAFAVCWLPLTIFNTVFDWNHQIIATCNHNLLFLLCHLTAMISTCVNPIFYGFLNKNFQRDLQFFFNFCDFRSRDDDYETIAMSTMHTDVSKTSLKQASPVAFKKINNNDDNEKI

T1 sequence (Q3UJF0 whole entry): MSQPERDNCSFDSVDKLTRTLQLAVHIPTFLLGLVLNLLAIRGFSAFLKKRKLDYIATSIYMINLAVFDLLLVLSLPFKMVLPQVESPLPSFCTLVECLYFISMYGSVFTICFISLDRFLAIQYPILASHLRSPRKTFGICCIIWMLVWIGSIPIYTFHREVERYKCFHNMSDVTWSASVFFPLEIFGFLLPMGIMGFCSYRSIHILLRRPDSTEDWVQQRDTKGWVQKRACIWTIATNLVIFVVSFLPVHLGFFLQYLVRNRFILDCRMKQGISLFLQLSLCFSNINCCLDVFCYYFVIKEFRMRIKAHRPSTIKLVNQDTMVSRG

With `C[C@H](CO)NC(=O)c1cccc(/C=C\CCCC(=O)N(C)C)c1` [VSN16R] the “Activity on DBT cells transfected with mouse Gpr55” value (mouse Gpr55) was “Lack of activity”, the IC50 (CYP450 1A2) was greater than 10 µM and the Activity (NK2) was “Negligible Activity”. The “Relaxation in the presence of extracellular KCl” value (rat mesenteric artery; 60 mM KCl) was “produced no relaxation”, the Vasorelaxation (rat mesenteric artery; endothelium intact vs denuded) was “significant vasorelaxation in an endothelium‐dependent manner” and the Activity (δ2) was “Negligible Activity”. For the same compound, the Activity (EDG3) was “Negligible Activity”, the Activity (GABA (non-selective)) was “Negligible Activity” and the Activity (EDG2) was “Negligible Activity”. The IC50 (CYP450 3A5) was greater than 10 µM, the Activity (GPR119) was “Negligible Activity” and the Activity (5-HT5A) was “Negligible Activity”. The Activity (MC4) was “Negligible Activity”, the Albumin (healthy humans [1]; 25mg) was 42 ± 1 g/L and the Amylase (healthy humans [1]; 25mg) was 65 ± 21 U/L. The Basophils (healthy humans [1]; 25mg) was 0.0 ± 0.0 109 cells/L, the Bilirubin (healthy humans [1]; 25mg) was 14.9 ± 6.1 µmol/L and the Calcium (healthy humans [1]; 25mg) was 2.40 ± 0.08 mmol/L. For the same compound, the Chloride (healthy humans [1]; 25mg) was 104 ± 2 mmol/L, the Cholesterol (healthy humans [1]; 25mg) was 4.79 ± 0.77 mmol/L and the Creatinine (healthy humans [1]; 25mg) was 84 ± 10 µmol/L. For the same compound, the Eosinophils (healthy humans [1]; 25mg) was 0.2 ± 0.1 109 cells/L, the Globulin (healthy humans [1]; 25mg) was 28.8 ± 5.6 g/L and the Glucose (healthy humans [1]; 25mg) was 4.78 ± 0.58 mmol/L. For the same compound, the Haemoglobin (healthy humans [1]; 25mg) was 9.4 ± 0.5 mmol/L, the Hematocrit (healthy humans [1]; 25mg) was 0.425 ± 0.021 and the Lymphocytes (healthy humans [1]; 25mg) was 1.9 ± 0.6 109 cells/L. The Magnesium (healthy humans [1]; 25mg) was 0.8 ± 0.0 mmol/L, the Monocytes (healthy humans [1]; 25mg) was 0.5 ± 0.1 109 cells/L and the Neutrophils (healthy humans [1]; 25mg) was 2.5 ± 0.6 109 cells/L. For the same compound, the Phosphate (healthy humans [1]; 25mg) was 1.20 ± 0.10 mmol/L, the Potassium (healthy humans [1]; 25mg) was 4.27 ± 0.18 mmol/L and the “Red Blood Cells” value (healthy humans [1]; 25mg) was 4.94 ± 0.30 1012 cells/L. The Sodium (healthy humans [1]; 25mg) was 141 ± 2 mmol/L, the Triglycerides (healthy humans [1]; 25mg) was 1.26 ± 0.25 mmol/L and the Urea (healthy humans [1]; 25mg) was 4.4 ± 0.9 mmol/L. The “White Blood Cells” value (healthy humans [1]; 25mg) was 5.2 ± 1.2 109 cells/L, the Albumin (healthy humans [1]; 800mg) was 42 ± 1 g/L and the Amylase (healthy humans [1]; 800mg) was 50 ± 12 U/L. The Basophils (healthy humans [1]; 800mg) was 0.0 ± 0.0 109 cells/L, the Bilirubin (healthy humans [1]; 800mg) was 11.4 ± 3.0 µmol/L and the Calcium (healthy humans [1]; 800mg) was 2.35 ± 0.04 mmol/L. For the same compound, the Chloride (healthy humans [1]; 800mg) was 104 ± 1 mmol/L, the Cholesterol (healthy humans [1]; 800mg) was 4.68 ± 0.78 mmol/L and the Creatinine (healthy humans [1]; 800mg) was 84 ± 10 µmol/L. For the same compound, the Eosinophils (healthy humans [1]; 800mg) was 0.3 ± 0.1 109 cells/L, the Globulin (healthy humans [1]; 800mg) was 28.9 ± 1.2 g/L and the Glucose (healthy humans [1]; 800mg) was 5.51 ± 0.92 mmol/L. The Haemoglobin (healthy humans [1]; 800mg) was 9.3 ± 0.5 mmol/L, the Hematocrit (healthy humans [1]; 800mg) was 0.421 ± 0.016 and the Lymphocytes (healthy humans [1]; 800mg) was 1.8 ± 0.6 109 cells/L. For the same compound, the Magnesium (healthy humans [1]; 800mg) was 0.8 ± 0.1 mmol/L, the Monocytes (healthy humans [1]; 800mg) was 0.5 ± 0.1 109 cells/L and the Neutrophils (healthy humans [1]; 800mg) was 2.7 ± 1.2 109 cells/L. The Phosphate (healthy humans [1]; 800mg) was 1.02 ± 0.10 mmol/L, the Potassium (healthy humans [1]; 800mg) was 4.19 ± 0.25 mmol/L and the “Red Blood Cells” value (healthy humans [1]; 800mg) was 4.87 ± 0.30 1012 cells/L. For the same compound, the Sodium (healthy humans [1]; 800mg) was 142 ± 3 mmol/L, the Triglycerides (healthy humans [1]; 800mg) was 1.55 ± 0.61 mmol/L and the Urea (healthy humans [1]; 800mg) was 4.7 ± 0.4 mmol/L. For the same compound, the “White Blood Cells” value (healthy humans [1]; 800mg) was 5.0 ± 1.1 109 cells/L, the “Electrocardiogram Heart Rate” value (healthy humans [2]; 25mg) was 59 ± 12 beats per min and the “PR Duration” value (healthy humans [2]; 25mg) was 184 ± 20 ms. The “QRS Duration” value (healthy humans [2]; 25mg) was 98 ± 9 ms, the “QT Duration” value (healthy humans [2]; 25mg) was 388 ± 26 ms and the “RR Duration” value (healthy humans [2]; 25mg) was 1044 ± 185 ms. The “Activated Partial Thrombin Time” value (healthy humans [2]; 25mg) was 26.4 ± 0.9 s, the “Partial Prothrombin Time” value (healthy humans [2]; 25mg) was 10.8 ± 0.3 s and the “Supine Diastolic Blood Pressure” value (healthy humans [2]; 25mg) was 65 ± 4 mmHg. The “Supine Pulse Rate” value (healthy humans [2]; 25mg) was 61 ± 15 beats per min, the “Supine Respiratory Rate” value (healthy humans [2]; 25mg) was 14 ± 2 Breath/min and the “Supine Systolic Blood Pressure” value (healthy humans [2]; 25mg) was 117 ± 9 mmHg. The “Supine Temperature” value (healthy humans [2]; 25mg) was 36.6 ± 0.2 ˚C, the “Thrombin Time” value (healthy humans [2]; 25mg) was 16.2 ± 0.8 s and the “Urinanalysis Ketones” value (healthy humans [2]; 25mg) was 0.0 ± 0.0 mmol/L. For the same compound, the “Urinanalysis Specific Gravity” value (healthy humans [2]; 25mg) was 1.016 ± 0.012, the “Urinanalysis pH” value (healthy humans [2]; 25mg) was 7.0 ± 0.6 and the “Urine Bilirubin” value (healthy humans [2]; 25mg) was 0.0 ± 0.0 µmol/L. The “Urine Glucose” value (healthy humans [2]; 25mg) was 0.0 ± 0.0 mmol/L, the “Urine Protein” value (healthy humans [2]; 25mg) was 0.08 ± 0.10 g/L and the “Urine RBC” value (healthy humans [2]; 25mg) was 0.0 ± 0.0 mg/L. For the same compound, the “Electrocardiogram Heart Rate” value (healthy humans [2]; 800mg) was 67 ± 8 beats per min, the “PR Duration” value (healthy humans [2]; 800mg) was 164 ± 16 ms and the “QRS Duration” value (healthy humans [2]; 800mg) was 98 ± 7 ms. The “QT Duration” value (healthy humans [2]; 800mg) was 383 ± 19 ms, the “RR Duration” value (healthy humans [2]; 800mg) was 903 ± 122 ms and the “Activated Partial Thrombin Time” value (healthy humans [2]; 800mg) was 24.9 ± 1.9 s. The “Partial Prothrombin Time” value (healthy humans [2]; 800mg) was 10.9 ± 0.5 s, the “Supine Diastolic Blood Pressure” value (healthy humans [2]; 800mg) was 71 ± 9 mmHg and the “Supine Pulse Rate” value (healthy humans [2]; 800mg) was 65 ± 9 beats per min. For the same compound, the “Supine Respiratory Rate” value (healthy humans [2]; 800mg) was 16 ± 2 Breath/min, the “Supine Systolic Blood Pressure” value (healthy humans [2]; 800mg) was 118 ± 10 mmHg and the “Supine Temperature” value (healthy humans [2]; 800mg) was 36.6 ± 0.2 ˚C. The “Thrombin Time” value (healthy humans [2]; 800mg) was 15.9 ± 1.2 s, the “Urinanalysis Ketones” value (healthy humans [2]; 800mg) was 0.0 ± 0.0 mmol/L and the “Urinanalysis Specific Gravity” value (healthy humans [2]; 800mg) was 1.017 ± 0.009. For the same compound, the “Urinanalysis pH” value (healthy humans [2]; 800mg) was 6.0 ± 0.4, the “Urine Bilirubin” value (healthy humans [2]; 800mg) was 0.0 ± 0.0 µmol/L and the “Urine Glucose” value (healthy humans [2]; 800mg) was 0.0 ± 0.0 mmol/L. The “Urine Protein” value (healthy humans [2]; 800mg) was 0.06 ± 0.08 g/L, the “Urine RBC” value (healthy humans [2]; 800mg) was 0.0 ± 0.0 mg/L and the Activity (Y1) was “Negligible Activity”.
